Source: US20190060410A1, “Pharmaceutical Formulation Comprising GLP-1 Analogue and Preparation Method Thereof” (Hangzhou Jiuyuan Gene Engineering Co., Ltd., priority 2015, published 2019)

How the values were obtained:
[1] = patients, combined with metformin (Nauck et al.); cited from earlier work
[2] = dissolution of liraglutide powder at different pHs; format: physicochemical
Experimental: Investigating the dissolution of liraglutide powder at different pHs
The appropriate amount of liraglutide powder was dissolved in the water for injection and the disodium hydrogen phosphate buffer at a different pH was added resulting in the dissolution shown in Table 1.

[3] = following subcutaneous injection; cited from earlier work
[4] = cited from earlier work

Row | Dissolution ([2]; 6 mg/ml liraglutide in water for injection) | Dissolution ([2]; 6 mg/ml liraglutide, 10 mM disodium hydrogen phosphate buffer (pH 7.00)) | Dissolution ([2]; 6 mg/ml liraglutide, 10 mM disodium hydrogen phosphate buffer (pH 7.50)) | Dissolution ([2]; 6 mg/ml liraglutide, 10 mM disodium hydrogen phosphate buffer (pH 8.00)) | Dissolution ([2]; 6 mg/ml liraglutide, 10 mM disodium hydrogen phosphate buffer (pH 8.15)) | Dissolution ([2]; 6 mg/ml liraglutide, 10 mM disodium hydrogen phosphate buffer (pH 8.50)) | Dissolution ([2]; 6 mg/ml liraglutide, 10 mM disodium hydrogen phosphate buffer (pH 9.00)) | dissolution of liraglutide powder ([2]; acidic and neutral conditions) | dissolution of liraglutide powder ([2]; alkaline conditions) | Compound | incidence of hypoglycemia [1] | plasma half-life [3] [h] | reduction of systolic blood pressure ([4]; LEAD series clinical trials, patients) | patients who reported nausea ([4]; LEAD-2 and LEAD-3 clinical trials) [%]
1 |  |  |  |  |  |  |  |  |  | CCC1=C(C)CN(C(=O)NCCc2ccc(S(=O)(=O)NC(=O)N[C@H]3CC[C@H](C)CC3)cc2)C1=O [glimepiride] | 17% |  |  | 
2 | insoluble | insoluble | colorless | colorless | colorless | colorless | colorless | didn't dissolve | readily dissolved | Arg^34, Lys^26 (N^ε-(γ-Glu (N^α-hexadecanoyl))) GLP-1 (7-37) [liraglutide] | less than 3% | 13 | 2.7-6.7 mmHg | < 10
